Laboratory results reported in patent publication US20240182453A1, “NOVEL SUBSTITUTED PYRAZINE-CARBOXAMIDE DERIVATIVES” (Boehringer Ingelheim International GmbH, priority 2022, published 2024).

Target: human metabotropic Glutamate 4 receptor (mGluR4) (Homo sapiens (Human), UniProt Q14833)
Experiment: Assay A: in vitro testing of mGluR4 potency (glutamate-induced cAMP lowering, HTRF cAMP)
Type: cell-based
Settings: HEK293 cells overexpressing human mGluR4; 10 uM L-glutamic acid, 1 uM forskolin; compounds of the present invention
How it was run: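 HEK293 cells overexpressing human mGluR4 treated 30 min at room temperature with compound plus 10 uM L-glutamate, 1 uM forskolin, 0.5 mM IBMX, 0.1% BSA, 1% DMSO. cAMP read by HTRF (665/615 nm ratio), normalized to glutamate (100%) and no-glutamate (0%) controls as percent of control.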

Chain of human metabotropic Glutamate 4 receptor (mGluR4) (Q14833 33-912): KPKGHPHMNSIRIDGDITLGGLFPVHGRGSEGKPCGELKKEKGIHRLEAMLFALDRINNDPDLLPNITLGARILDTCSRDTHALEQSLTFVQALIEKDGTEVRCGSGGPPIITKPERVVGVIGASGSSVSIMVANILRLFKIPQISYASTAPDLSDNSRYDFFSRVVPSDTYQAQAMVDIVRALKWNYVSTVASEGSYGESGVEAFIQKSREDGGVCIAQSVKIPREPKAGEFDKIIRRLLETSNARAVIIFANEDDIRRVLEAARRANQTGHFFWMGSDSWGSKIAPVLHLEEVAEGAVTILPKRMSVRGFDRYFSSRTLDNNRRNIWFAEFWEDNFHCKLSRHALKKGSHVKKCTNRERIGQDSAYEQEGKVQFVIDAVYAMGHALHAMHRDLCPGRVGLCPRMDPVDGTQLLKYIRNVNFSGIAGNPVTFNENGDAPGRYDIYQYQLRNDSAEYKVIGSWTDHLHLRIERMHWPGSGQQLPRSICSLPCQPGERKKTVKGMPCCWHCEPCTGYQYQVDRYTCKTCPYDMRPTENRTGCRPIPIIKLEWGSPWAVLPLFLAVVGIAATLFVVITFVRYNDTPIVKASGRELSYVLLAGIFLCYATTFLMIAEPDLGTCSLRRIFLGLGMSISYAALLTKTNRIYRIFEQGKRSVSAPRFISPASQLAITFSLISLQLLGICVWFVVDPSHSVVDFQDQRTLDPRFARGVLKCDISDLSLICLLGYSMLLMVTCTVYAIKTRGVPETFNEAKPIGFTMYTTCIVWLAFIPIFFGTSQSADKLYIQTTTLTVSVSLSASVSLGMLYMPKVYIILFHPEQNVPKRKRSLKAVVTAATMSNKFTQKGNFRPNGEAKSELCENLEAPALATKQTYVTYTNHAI

IC50	SMILES
17 nM	Cn1c([C@@H](NC(=O)c2cnc(C(F)F)cn2)[C@H]2CCCO2)nc2cc(OC(F)(F)F)ccc21 [Example 113, 5-(difluoromethyl)-N-[(R)-[1-methyl-5-(trifluoromethoxy)-1H-1,3-benzodiazol-2-yl][(2R)-oxolan-2-yl]methyl]pyrazine-2-carboxamide]
45 nM	Cn1c(C(NC(=O)c2cnc(C(F)F)cn2)C2CCCO2)nc2cc(OC(F)(F)F)ccc21 (stereo not drawn) [Example 113-1, 5-(difluoromethyl)-N-{[1-methyl-5-(trifluoromethoxy)-1H-1,3-benzodiazol-2-yl](oxolan-2-yl)methyl}pyrazine-2-carboxamide]
15 nM	O=C(N[C@@H](CC1CC1)c1nc2cc(F)ccc2n1C1CC1)c1cnc(C(F)F)cn1 [Example 114, N-[(1S)-2-cyclopropyl-1-(1-cyclopropyl-5-fluoro-1H-1,3-benzodiazol-2-yl)ethyl]-5-(difluoromethyl)pyrazine-2-carboxamide]
9 nM	Cc1cnc(C(=O)N[C@H](c2nc3cc(OC(F)(F)F)ccc3n2C2CC2)C2CC2)cn1 [Example 115, N-[(S)-cyclopropyl[1-cyclopropyl-5-(trifluoromethoxy)-1H-1,3-benzodiazol-2-yl]methyl]-5-methylpyrazine-2-carboxamide]
13 nM	Cc1cnc(C(=O)N[C@H](c2nc3cc(C(F)(F)F)ccc3n2C2CC2)C2CC2)cn1 [Example 116, N-[(S)-cyclopropyl[1-cyclopropyl-5-(trifluoromethyl)-1H-1,3-benzodiazol-2-yl]methyl]-5-methylpyrazine-2-carboxamide]
8 nM	O=C(N[C@@H](CC1CC1)c1nc2cc(Cl)ccc2n1C1CC1)c1cnc(C(F)F)cn1 [Example 117, N-[(1S)-1-(5-chloro-1-cyclopropyl-1H-1,3-benzodiazol-2-yl)-2-cyclopropylethyl]-5-(difluoromethyl)pyrazine-2-carboaxamide]
14 nM	O=C(N[C@@H](CC1CC1)c1nc2cc(F)c(F)cc2n1C1CC1)c1cnc(C(F)F)cn1 [Example 118, N-[(1S)-2-cyclopropyl-1-(1-cyclopropyl-5,6-difluoro-1H-1,3-benzodiazol-2-yl)ethyl]-5-(difluoromethyl)pyrazine-2-carboxamide]
1 nM	CO[C@H](C)[C@H](NC(=O)c1cnc(C)cn1)c1nc2cc(OC(F)(F)F)ccc2n1CCOC1CC1 [Example 119, N-[(1R,2R)-1-[1-(2-cyclopropoxyethyl)-5-(trifluoromethoxy)-1H-1,3-benzodiazol-2-yl]-2-methoxypropyl]-5-methylpyrazine-2-carboxamide]
1 nM	COCCn1c([C@@H](NC(=O)c2cnc(C(F)F)cn2)[C@@H](C)OC)nc2cc(OC(F)(F)F)ccc21 [Example 121, 5-(difluoromethyl)-N-[(1R,2R)-2-methoxy-1-[1-(2-methoxyethyl)-5-(trifluoromethoxy)-1H-1,3-benzodiazol-2-yl]propyl]pyrazine-2-carboxamide]
1 nM	Cc1cnc(C(=O)N[C@H](c2nc3c(C4CC4)c(Br)ccc3n2C)C2CC2)cn1 [Example 122, N-[(S)-(5-bromo-4-cyclopropyl-1-methyl-1H-1,3-benzodiazol-2-yl)(cyclopropyl)methyl]-5-methylpyrazine-2-carboxamide]
3 nM	CO[C@H](C)[C@H](NC(=O)c1cnc(C)cn1)c1nc2cc(OC(F)(F)F)ccc2n1C(C)C [Example 123, N-[(1R,2R)-2-methoxy-1-[1-(propan-2-yl)-5-(trifluoromethoxy)-1H-1,3-benzodiazol-2-yl]propyl]-5-methylpyrazine-2-carboxamide]
4 nM	COCCn1c([C@@H](NC(=O)c2cnc(C(F)(F)F)cn2)[C@@H](C)OC)nc2cc(OC(F)(F)F)ccc21 [Example 124, N-[(1R,2R)-2-methoxy-1-[1-(2-methoxyethyl)-5-(trifluoromethoxy)-1H-1,3-benzodiazol-2-yl]propyl]-5-(trifluoromethyl)pyrazine-2-carboxamide]
7 nM	Cc1cnc(C(=O)N[C@@H](CC2CC2)c2nc3cc(Cl)ccc3n2CCOC(F)F)cn1 [Example 125, N-[(1S)-1-{5-chloro-1-[2-(difluoromethoxy)ethyl]-1H-1,3-benzodiazol-2-yl}-2-cyclopropylethyl]-5-methylpyrazine-2-carboxamide]
14 nM	COCCn1c([C@@H](NC(=O)c2cnc(C)cn2)C(C)(C)O)nc2cc(C(F)(F)F)ccc21 [Example 126, N-[(1R)-2-hydroxy-1-[1-(2-methoxyethyl)-5-(trifluoromethyl)-1H-1,3-benzodiazol-2-yl]-2-methylpropyl]-5-methylpyrazine-2-carboxamide]
8 nM	CCn1c([C@@H](NC(=O)c2cnc(C)cn2)C2CC(F)(F)C2)nc2cc(F)ccc21 [Example 127, N-[(S)-(3,3-difluorocyclobutyl)(1-ethyl-5-fluoro-1H-1,3-benzodiazol-2-yl)methyl]-5-methylpyrazine-2-carboxamide]
8 nM	Cc1cnc(C(=O)N[C@@H](CC2CC2)c2nc3cc(F)c(F)cc3n2CCOC(F)F)cn1 [Example 128, N-[(1S)-2-cyclopropyl-1-{1-[2-(difluoromethoxy)ethyl]-5,6-difluoro-1H-1,3-benzodiazol-2-y1}ethyl]-5-methylpyrazine-2-carboxamide]
9 nM	COC[C@@H](C)n1c([C@@H](NC(=O)c2cnc(C)cn2)[C@@H](C)OC)nc2cc(OC(F)(F)F)ccc21 [Example 129, N-[(1R,2R)-2-methoxy-1-{1-[(2R)-1-methoxypropan-2-yl]-5-(trifluoromethoxy)-1H-1,3-benzodiazol-2-yl}propyl]-5-methylpyrazine-2-carboxamide]
13 nM	COCCCn1c([C@@H](NC(=O)c2cnc(C)cn2)[C@@H](C)OC)nc2cc(OC(F)(F)F)ccc21 [Example 130, N-[(1R,2R)-2-methoxy-1-[1-(3-methoxypropyl)-5-(trifluoromethoxy)-1H-1,3-benzodiazol-2-yl]propyl]-5-methylpyrazine-2-carboxamide]
14 nM	CO[C@H](C)[C@H](NC(=O)c1cnc(C)cn1)c1nc2cc(OC(F)(F)F)ccc2n1C1CC1 [Example 131, N-[(1R,2R)-1-[1-cyclopropyl-5-(trifluoromethoxy)-1H-1,3-benzodiazol-2-yl]-2-methoxypropyl]-5-methylpyrazine-2-carboxamide]
3 nM	Cc1cnc(C(=O)N[C@H](c2nc3ccc(C(F)(F)F)cc3n2CC(F)F)C2CC2)cn1 [Example 138, N-[(S)-cyclopropyl[1-(2,2-difluoroethyl)-6-(trifluoromethyl)-1H-1,3-benzodiazol-2-yl]methyl]-5-methylpyrazine-2-carboxamide]
12 nM	CCn1c([C@@H](NC(=O)c2cnc(C)cn2)[C@@H]2CCOC2)nc2cc(C(F)(F)F)ccc21 [Example 140, N-[(S)-[1-ethyl-5-(trifluoromethyl)-1H-1,3-benzodiazol-2-yl][(3S)-oxolan-3-yl]methyl]-5-methylpyrazine-2-carboxamide]
8 nM	Cc1cnc(C(=O)N[C@H](c2nc3cc(C(F)(F)F)ccc3n2CC(F)F)[C@H]2CCOC2)cn1 [Example 142, N-[(S)-[1-(2,2-difluoroethyl)-5-(trifluoromethyl)-1H-1,3-benzodiazol-2-yl][(3R)-oxolan-3-yl]methyl]-5-methylpyrazine-2-carboxamide]
41 nM	CCn1c([C@@H](NC(=O)c2cnc(C)cn2)[C@H]2CCOC2)nc2cc(F)ccc21 [Example 144, N-[(S)-(1-ethyl-5-fluoro-1H-1,3-benzodiazol-2-yl)[(3R)-oxolan-3-yl]methyl]-5-methylpyrazine-2-carboxamide]
41 nM	Cc1cnc(C(=O)N[C@H](c2nc3ccc(C(F)(F)F)cc3n2CC(F)F)[C@@H]2CCOC2)cn1 [Example 145, N-[(S)-[1-(2,2-difluoroethyl)-6-(trifluoromethyl)-1H-1,3-benzodiazol-2-yl][(3S)-oxolan-3-yl]methyl]-5-methylpyrazine-2-carboxamide]
3 nM	CCn1c([C@@H](NC(=O)c2cnc(C)cn2)[C@]2(O)CCCOC2)nc2cc(C(F)(F)F)ccc21 [Example 149, N-[(R)-[1-ethyl-5-(trifluoromethyl)-1H-1,3-benzodiazol-2-yl][(3R)-3-hydroxyoxan-3-yl]methyl]-5-methylpyrazine-2-carboxamide]
14 nM	CCn1c([C@@H](NC(=O)c2cnc(C)cn2)[C@]2(O)CCCOC2)nc2cc(F)ccc21 [Example 150, N-[(R)-(1-ethyl-5-fluoro-1H-1,3-benzodiazol-2-yl)[(3R)-3-hydroxyoxan-3-yl]methyl]-5-methylpyrazine-2-carboxamide]
58 nM	Cc1cnc(C(=O)N[C@H](c2nc3cc(F)ccc3n2CC(F)F)[C@]2(O)CCCOC2)cn1 [Example 151, N-[(R)-[1-(2,2-difluoroethyl)-5-fluoro-1H-1,3-benzodiazol-2-yl][(3R)-3-hydroxyoxan-3-yl]methyl]-5-methylpyrazine-2-carboxamide]
14 nM	CCn1c([C@@H](NC(=O)c2cnc(C)cn2)[C@]2(O)CCCOC2)nc2ccc(C(F)(F)F)cc21 [Example 152, N-[(R)-[1-ethyl-6-(trifluoromethyl)-1H-1,3-benzodiazol-2-yl][(3R)-3-hydroxyoxan-3-yl]methyl]-5-methylpyrazine-2-carboxamide]
30 nM	CCn1c([C@@H](NC(=O)c2cnc(C)cn2)[C@]2(O)CCCOC2)nc2ccc(F)cc21 [Example 153, N-[(R)-(1-ethyl-6-fluoro-1H-1,3-benzodiazol-2-yl)[(3R)-3-hydroxyoxan-3-yl]methyl]-5-methylpyrazine-2-carboxamide]

SMILES	IC50
CO[C@H](C)[C@H](NC(=O)c1cnc(C)cn1)c1nc2cc(OC(F)(F)F)ccc2n1CCOC1CCC1 [Example 120, N-[(1R,2R)-1-[1-(2-cyclobutoxyethyl)-5-(trifluoromethoxy)-1H-1,3-benzodiazol-2-yl]-2-methoxypropyl]-5-methylpyrazine-2-carboxamide]	1 nM
